The text below walks through data of US11504358B2, “Extended release methazolamide formulation” (Effcon Laboratories, Inc., priority 2017, dated 2022).

For data set [1] the following is noted: in water, alcohol and acetone; cited from earlier work.
The nature of data set [2]: Density of methazolamide particles. In kind it is physicochemical.
Data set [3] can be described thus: Methazolamide particle size testing, sonic shifter (sieves). In kind it is physicochemical. How it is done:
Methazolamide particle size testing was performed on unmilled methazolamide particles and methazolamide particles milled in-house and by a third party vendor according to the above milling procedure. Methazolamide particle size testing was conducted using a Mastersizer laser particle size analyzer from Malvern Instruments or a sonic shifter. The results of the particle size testing for methazolamide particles milled in-house, as measured by a laser particle size analyzer, are as follows:
The results of the particle size testing for unmilled methazolamide particles, methazolamide particles milled in-house, and methazolamide particles milled by a third party vendor, as measured by a sonic shifter, are as follows: […]

Data set [4] can be described thus: Methazolamide particle size testing, laser particle size analyzer. Format: physicochemical. The conditions noted are these: particles milled in-house. The protocol: The following conventions apply when describing particle size distribution. D(v, 0.1) means that 10% of the particles are smaller than this diameter. D(v, 0.5) is the median particle diameter. D(v, 0.9) means that 90% of the particles are smaller than this diameter.
Methazolamide particle size testing was performed on unmilled methazolamide particles and methazolamide particles milled in-house and by a third party vendor according to the above milling procedure. Methazolamide particle size testing was conducted using a Mastersizer laser particle size analyzer from Malvern Instruments or a sonic shifter. The results of the particle size testing for methazolamide particles milled in-house, as measured by a laser particle size analyzer, are as follows: […]

Turning to `CC(=O)N=c1sc(S(N)(=O)=O)nn1C` [Methazolamide, N-[5-(aminosulfonyl)-3-methyl-1,3,4-thiadiazol-2(3H)-ylidene]acetamide], the Solubility entry in data set [1] was “slightly soluble”.
For `CC(=O)/N=c1/sc(S(N)(=O)=O)nn1C` [Milled API (3rd party)], in data set [2], the “Bulk Density” value stood at 0.53 g/mL and the “Trapped Density” value was 1.00 g/mL. In data set [3], the “% Retained, Fines Collector” value stood at 15.56%; the “% Retained, Sieve # 20 (840 μm)” value was 5.15%; the “% Retained, Sieve # 40 (420 μm)” value stood at 6.14%; the “% Retained, Sieve # 80 (177 μm)” value is 21.88%. Also, in data set [3], the “% Retained, Sieve # 100 (149 μm)” value came out at 17.14%; the “% Retained, Sieve # 140 (105 μm)” value was 21.90%; the “% Retained, Sieve # 200 (74 μm)” value was determined as 12.29%.
Turning to `CC(=O)/N=c1/sc(S(N)(=O)=O)nn1C` [Milled API (in-house)], in data set [2], the “Bulk Density” value is 0.56 g/mL and the “Trapped Density” value is given as 0.99 g/mL. Besides, in data set [3], the “% Retained, Fines Collector” value was 16.51%; the “% Retained, Sieve # 20 (840 μm)” value is 1.23%; the “% Retained, Sieve # 40 (420 μm)” value is 1.52%; the “% Retained, Sieve # 80 (177 μm)” value is recorded as 15.27%. For the same compound, in data set [3], the “% Retained, Sieve # 100 (149 μm)” value was found to be 19.54%; the “% Retained, Sieve # 140 (105 μm)” value stood at 32.92%; the “% Retained, Sieve # 200 (74 μm)” value is given as 13.00%.
As to `CC(=O)/N=c1/sc(S(N)(=O)=O)nn1C` [Sample 1], in data set [4], the “D(v, 0.1)” value is 42.15 μm; the “D(v, 0.5)” value was 121.45 μm; the “D(v, 0.9)” value is listed as 255.75 μm.
On to `CC(=O)/N=c1/sc(S(N)(=O)=O)nn1C` [Sample 2], for which, in data set [4], the “D(v, 0.1)” value was 47.67 μm; the “D(v, 0.5)” value is on record as 132.34 μm; the “D(v, 0.9)” value was 269.30 μm.
For `CC(=O)/N=c1/sc(S(N)(=O)=O)nn1C` [Sample 3], in data set [4], the “D(v, 0.1)” value came out at 48.42 μm; the “D(v, 0.5)” value is on record as 128.46 μm; the “D(v, 0.9)” value amounted to 267.26 μm.
With `CC(=O)/N=c1/sc(S(N)(=O)=O)nn1C` [Unmilled API], in data set [2], the “Bulk Density” value is 0.92 g/mL and the “Trapped Density” value was 1.03 g/mL. In addition, in data set [3], the “% Retained, Fines Collector” value was 0.83%; the “% Retained, Sieve # 20 (840 μm)” value is listed as 0.09%; the “% Retained, Sieve # 40 (420 μm)” value is reported as 7.95%; the “% Retained, Sieve # 80 (177 μm)” value was 75.05%. In addition, in data set [3], the “% Retained, Sieve # 100 (149 μm)” value was 8.04%; the “% Retained, Sieve # 140 (105 μm)” value is 6.01%; the “% Retained, Sieve # 200 (74 μm)” value turned out to be 2.03%.
